The test system of data set [1] is micro-organisms immobilised on pumice particles. The experiment in a line: Bacterial growth inhibition test with sulfite. The conditions noted are these: 5 days. It is filed as cell-based. As for the experimental part:
(§1) Batch experiments were conducted in 110 ml gas-tight glass vessels, which were filled with 10 ml of mineral medium. The gas-phase and the medium in the vessels were flushed with nitrogen. Hydrogen gas was supplied by injection of a known amount using a gas-tight syringe (up to 150 kPa). Vessels were incubated at 30° C. in a shaking water bath. Micro-organisms immobilised on pumice particles were withdrawn from the gas-lift reactor whenever steady state conditions were reached and washed twice with phosphate buffer (20 mM) before use. These immobilised micro-organisms were used to inoculate the cultures. Various salt concentrations in the batch cultures were obtained by adding various amounts of sodium chloride. Sodium sulfite was added to cultures in various amounts from a freshly prepared stock solution. The test vessels for the growth experiments were inoculated by injecting 5 ml of effluent from the reactor. The micro-organisms in the effluent were washed three times with phosphate buffer (20 mM) and concentrated to 0.5 ml by centrifugation (10,000 g, 15 min). 4.4 Analytical Procedures
Besides chlorate and […] the waste water also contains small amounts of hypochlorite. Since hypochlorite is a biocide, removal of this compound before biological treatment is necessary. Hypochlorite can be removed instantly from the waste water using sulfite as reductant. This procedure could be used prior to the biological treatment. To examine whether sulfite is toxic to micro-organisms immobilised on the pumice particles, a toxicity test was performed. Growth was determined after 5 days, and was compared to a control culture without sulfite. The growth was determined by measuring the formation of chloride.

The subject of the next data set is mixed culture. Kind of data set: Growth experiments with various carbon sources. Further: key: ++: Extensive growth; +: Growth (based on turbidity of culture); +/−: Slight increase in turbidity. The conditions noted are these: 24 mM substrate, 10 mM chlorate, 30° C., turbidity. Type of data set: cell-based. As for the experimental part:
Growth of the mixed culture with different carbon and energy sources was determined in 100 ml serum bottles with gas-tight caps filled up to 75% of their volume with mineral salts medium and 24 mM of the substrate and incubated at 30° C. Chlorate was added at a concentration of 10 mM. Growth was followed by determination of the turbidity (visually). The cultures were made anoxic by being flushed with nitrogen gas for approximately 5 minutes. Growth was followed for a maximum period of 2 months.

In data set [2] the test system is chlorate-reducing mixed culture. Conditions: up to a concentration of 12 mM, separate experiments.
Procedure: These cultures were inoculated with 1 ml of an exponentially growing culture. […] These cultures were anaerobically incubated at 30° C. in a water bath. The turbidity was measured using a Nephelometer (Hack Ratio XR, Loveland, USA). The turbidity was plotted against time for each of the concentrations and the control. The growth was derived from the slope of the regression line in a plot of In OD 660 versus time. The percentage inhibition of the growth at each concentration was calculated. […] Confidence limits were calculated on the basis of Fieller's theorem. All computations were performed using a statistical software program (SAS, Cary, N.C., USA).
Growth was followed for approximately 8 hours.
Data set [3] relates to micro-organisms immobilised on pumice particles. Kind of data set: Influence of high salt concentration on microbial activity (batch). Type of data set: cell-based. As for the experimental part:
as §1
The effect of increased salt concentration in the reactor was investigated in batch experiments. The activity of the micro-organisms immobilised on pumice particles in the batch experiment decreased only slightly with increasing salinity, as indicated in FIG. 19. […]

As for `O=S([O-])[O-].[Na+].[Na+]` [Sulfite, sodium sulfite], the Growth inhibition worked out at 4% in data set [1] (sulfite 15 mg/l), 0% in data set [1] (sulfite 45 mg/l), 6% in data set [1] (sulfite 135 mg/l) and 7% in data set [1] (sulfite 405 mg/l).

`CC(=O)O` [acetate]: the Growth result in the data set on mixed culture was “++”. As to `[O-][Cl+2]([O-])O` [chlorate], the “toxicity to the mixed culture” value in data set [2] was “not toxic”. `CCO` [ethanol]: the Growth result in the data set on mixed culture is on record as “++”. In the case of `NCC(=O)O` [glycine], in the data set on mixed culture, the Growth result is “+/−”. On the same count and under the same terms, in the case of `CC(O)C(=O)O` (centres unmarked) [lactate] it was “+”; in that of `O=C(O)CC(O)C(=O)O` (centres unmarked) [malate], “++”.

For the molecule `CCC(=O)O` [propionate], the Growth result with mixed culture is on record as “++”. Turning to `[Cl-].[Na+]` [sodium chloride], the “effects of increased salinity on activity” value in data set [3] (40 g/l) was “substantial”. Also, the “activity (chlorate reduction) relative to the maximum” value in data set [3] (concentration of 30 μl sodium chloride, unacclimatised micro-organisms) is “more than 80%”. With `O=C(O)CCC(=O)O` [succinate], the Growth result in the data set on mixed culture is on record as “++”.

These data come from US6755971B2, “Microbiological removal of bromine salts from fluid streams” (AKZO Nobel N.V., priority 1999, dated 2004).
